Among the data in ChEMBL document CHEMBL3244064, “Conformational effects on the activity of drugs. 7. Synthesis and pharmacological properties of 2-(p-nitrophenyl)-substituted morpholines” (J Med Chem, 1979) are Ratio and Activity values, retold here.

SMILES strings stand for the structures. Active and inactive are the calls of the source. No cut-off for these calls is given here.

What all share (type): protein assay
Experiment [1] concerns the target T1, Adrenergic receptor alpha (Rattus norvegicus) (UniProt P15823+P23944+P43140+P22086+P19328+P22909). Description: Stimulation of alpha-adrenergic receptor in ICEM:CER SPF Caw rat vas deferens assessed as muscle contraction after 2 to 3 mins relative to INPEA.
Experiment [2] has as its target T1, Adrenergic receptor alpha (Rattus norvegicus). As to the kind of experiment: Stimulation of alpha-adrenergic receptor in ICEM:CER SPF Caw rat vas deferens assessed as potentiation of norepinephrine response at 50 uM after 2 to 3 mins.
The target is the same in experiment [3]. As to the kind of experiment: Stimulation of alpha-adrenergic receptor in ICEM:CER SPF Caw rat vas deferens assessed as muscle contraction after 2 to 3 mins in presence of alpha-adrenoceptor blocker dihydroergotamine.
Experiment [4] shares this target. Description: Stimulation of alpha-adrenergic receptor in ICEM:CER SPF Caw rat vas deferens assessed as muscle contraction after 2 to 3 mins relative to norepinephrine.
For experiment [5] the target is unchanged. Description: Stimulation of alpha-adrenergic receptor in reserpine-pretreated ICEM:CER SPF Caw rat vas deferens assessed as muscle contraction after 2 to 3 mins.

On to `CC(C)(C)NCC(O)c1ccc([N+](=O)[O-])cc1` (stereo not drawn), for which the Ratio in experiment [1] is 0.27; in experiment [4], 0.0012. Besides, in experiment [2], the Activity amounted to 127%. Besides, the result in experiment [3] was inactive.
The like results for `CNCC(O)c1ccc([N+](=O)[O-])cc1` (stereo not drawn) were, in that order, 1.04, 0.0047, 253% and “inactive”.
In the case of `CC(C)N1CCOC(c2ccc([N+](=O)[O-])cc2)C1` (stereo not drawn), the Ratio was found to be 1 in experiment [1] and 0.0045 in experiment [4]. For the same molecule, the result in experiment [5] was Active. For the same molecule, the Activity in experiment [2] worked out at 223%. Also, the result in experiment [3] was inactive.
For `CC(C)(C)N1CCOC(c2ccc([N+](=O)[O-])cc2)C1` (stereo not drawn), the Ratio was 0.64 in experiment [1] and 0.0029 in experiment [4]. The Activity in experiment [2] was 169%. In experiment [3], the outcome was inactive.
Taken in the same sequence, the figures for `NCC(O)c1ccc([N+](=O)[O-])cc1` (stereo not drawn) were 1.66, 0.0075, 179% and “inactive”.
As to `CN1CCOC(c2ccc([N+](=O)[O-])cc2)C1` (stereo not drawn), the Ratio in experiment [1] was determined as 0.31; in experiment [4], 0.0014. Further, the Activity in experiment [2] is 192%. The outcome in experiment [3] was inactive.
For the molecule `CC(C)NCC(O)c1ccc([N+](=O)[O-])cc1` (stereo not drawn), the result in experiment [5] was Active. The Activity in experiment [2] came to 209%. Besides, the result in experiment [3] was inactive. In addition, the Ratio in experiment [4] was found to be 0.0045.
As for `O=[N+]([O-])c1ccc(C2CNCCO2)cc1` (stereo not drawn), the results for the Ratio in experiment [1] and in experiment [4] were 1.4 and 0.0063, respectively. Besides, the Activity in experiment [2] was found to be 203%. For the same molecule, the result in experiment [3] was inactive.
